Source: PubChem BioAssay AID651630 (Sanford-Burnham Center for Chemical Genomics, 2012)
pIC50: −log10 of the molar value. Active and inactive are the calls of the source.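 How the source made its calls: active means lipid-stain IC50 at or below a set limit, with nuclear-stain toxicity IC50 at least five times higher; inactive means the rest.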

How the values were obtained:
TAG = test: triacylglycerol accumulation inhibitor potency, dose response, cell-based, panel, Nile Red and DAPI fluorescence, H9c2 (AID 651630); details: H9c2 cells, Nile Red TAG fluorescence, oleic acid;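 further: cells exposed to compound overnight before fixation and staining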
DAPI = test: as above; details: H9c2 cells, DAPI nuclear fluorescence (cytotoxicity counter-readout), oleic acid

Row | IC50 (TAG; mean of runs) | pIC50 (TAG; run 1) | pIC50 (TAG; run 2) | pIC50 (TAG; mean of runs) | SMILES | IC50 cytotoxicity (DAPI nuclear signal decrease) (DAPI; mean of runs) | IC50 cytotoxicity (DAPI nuclear signal decrease) (DAPI; run 1) | IC50 cytotoxicity (DAPI nuclear signal decrease) (DAPI; run 2)
1 | > 25 µM (inactive) | < 4.60 | < 4.60 |  | O=C(c1cnn2c1NC(c1ccc(Br)cc1)CC2C(F)(F)F)N1CCN(C23CC4CC(CC(C4)C2)C3)CC1 (stereo not drawn) | > 25 µM (inactive) | > 25 µM | > 25 µM
2 |  | 4.66 | < 4.60 |  | COc1ccc(CN(C)C[C@@H]2OCCCC[C@H](C)Oc3ccc(NC(=O)Nc4ccc(F)cc4)cc3C(=O)N([C@H](C)CO)C[C@H]2C)cc1 | > 25 µM (inactive) | > 25 µM | > 25 µM
3 |  | < 4.60 | 5.02 |  | CCCCNC(=O)C(=O)Nc1ccc2c(c1)N(S(=O)(=O)c1cccs1)CCC2 | > 25 µM (inactive) | > 25 µM | > 25 µM
4 | > 25 µM (inactive) | < 4.60 | < 4.60 |  | O=C(OCc1ccc(Br)cc1)c1cc([N+](=O)[O-])ccc1N1CCOCC1 | > 25 µM (inactive) | > 25 µM | > 25 µM
5 |  | 4.80 | 5.00 | 4.89 | Cc1ccccc1NC(=O)CSc1nc(Nc2ccccc2)nc(N2CCOCC2)n1 | > 25 µM (inactive) | > 25 µM | > 25 µM
6 |  | 4.91 | 5.09 | 4.99 | CCN1C(=O)[C@H]2[C@@H](c3ccc(-c4ccccc4)c(OC)c3)N[C@@](CC(C)C)(C(=O)OC)[C@H]2C1=O | > 25 µM (inactive) | > 25 µM | > 25 µM

Second part, the molecule before the results:

Row | SMILES | IC50 (TAG; mean of runs) | pIC50 (TAG; run 1) | pIC50 (TAG; run 2) | pIC50 (TAG; mean of runs) | IC50 cytotoxicity (DAPI nuclear signal decrease) (DAPI; mean of runs) | IC50 cytotoxicity (DAPI nuclear signal decrease) (DAPI; run 1) | IC50 cytotoxicity (DAPI nuclear signal decrease) (DAPI; run 2)
7 | CSc1nc(N(C)NC(=O)c2ccc(Cl)cc2)c2ccccc2n1 | > 25 µM (inactive) | < 4.60 | < 4.60 |  | > 25 µM (inactive) | > 25 µM | > 25 µM
8 | CCN(CC)CCCN(C(=O)c1cccs1)c1nc(-c2ccc(OC)cc2)cs1 |  | 4.98 | 5.00 | 4.99 | > 25 µM (inactive) | > 25 µM | > 25 µM
9 | CC(=O)O[C@H]1C[C@@]2(C)[C@@H](C[C@@H](O)[C@H]3[C@@]4(C)CC[C@@H](O)[C@@H](C)[C@@H]4CC[C@@]32C)/C1=C(\CCC=C(C)C)C(=O)O | 18.5 µM (inactive) | 4.82 | 4.66 |  | > 25 µM (inactive) | > 25 µM | > 25 µM
10 | Clc1cccc(Nc2nc(-c3ccncc3)cs2)c1 | > 25 µM (inactive) | < 4.60 | < 4.60 |  | > 25 µM (inactive) | > 25 µM | > 25 µM
11 | Cc1onc(NC(=O)c2ccc([N+](=O)[O-])o2)c1Br | > 25 µM (inactive) | < 4.60 | < 4.60 |  | > 25 µM (inactive) | > 25 µM | > 25 µM
12 | N#CC1=C(N)Oc2cc(Nc3ccccc3)ccc2C1c1ccncc1 (stereo not drawn) |  | 4.70 | < 4.60 |  |  | 23.2 µM | > 25 µM
13 | COc1cc2c3c(c1)c(C1=NC(=S)NC1=O)c(O)n3C(C)(C)C=C2C |  | 5.17 | 5.28 | 5.22 | > 25 µM (inactive) | > 25 µM | > 25 µM
14 | Cc1[nH]c2ccccc2c1/C=N/Nc1nc(Nc2ccc(F)cc2)nc(N2CCOCC2)n1 | 20.6 µM (inactive) | 4.67 | 4.71 |  | > 25 µM (inactive) | > 25 µM | > 25 µM
15 | COc1cc(OC)c2c(-c3ccccc3)cc(=O)oc2c1C(CCN1CCN(c2ccccc2)CC1)c1ccc(N(C)C)cc1 (stereo not drawn) |  | 5.17 | 5.23 | 5.20 | > 25 µM (inactive) | > 25 µM | > 25 µM
16 | O=C1C(Cl)=C(NCc2ccco2)C(=O)c2ccccc21 | > 25 µM (inactive) | < 4.60 | < 4.60 |  | > 25 µM (inactive) | > 25 µM | > 25 µM
17 | COc1ccc(CC(N)c2csc(NC(=O)Nc3ccccc3C(C)C)n2)cc1 (stereo not drawn) | > 25 µM (inactive) | < 4.60 | < 4.60 |  | 21.5 µM (inactive) | 20.3 µM | 22.7 µM
